Test results as given in the NIST ThermoML archive (doi:10.1016/j.fluid.2018.09.026).
Where “and” joins values, the source holds several entries; their conditions need not be identical. Equal entries are not always repeated. ± gives the expanded uncertainty stated by the source.

Settings: Liquid; for mass density: Vibrating tube method; for viscosity: Vibrating wire viscometry

**Q.** Which results are given for `OCCOCCOCCO` [triethylene glycol]?
**A.** mass density (283.15 K, 100 kPa): 1130.8 ± 4.5 kg/m3; mass density (283.15 K, 660 kPa): 1131 ± 4.5 kg/m3; mass density (283.15 K, 1150 kPa): 1131.2 ± 4.5 kg/m3; mass density (283.15 K, 1570 kPa): 1131.4 ± 4.5 kg/m3; mass density (283.15 K, 2090 kPa): 1131.6 ± 4.5 kg/m3; mass density (283.15 K, 3090 kPa): 1132 ± 4.5 kg/m3; mass density (283.15 K, 5060 kPa): 1132.9 ± 4.5 kg/m3; mass density (283.15 K, 6940 kPa): 1133.6 ± 4.5 kg/m3; mass density (283.15 K, 10020 kPa): 1134.9 ± 4.6 kg/m3; mass density (283.15 K, 14850 kPa): 1136.9 ± 4.6 kg/m3; mass density (283.15 K, 19830 kPa): 1138.9 ± 4.6 kg/m3; mass density (283.15 K, 24700 kPa): 1140.8 ± 4.6 kg/m3; mass density (283.15 K, 29600 kPa): 1142.7 ± 4.6 kg/m3; mass density (283.15 K, 34510 kPa): 1144.6 ± 4.6 kg/m3; mass density (283.15 K, 39360 kPa): 1146.4 ± 4.6 kg/m3; mass density (283.15 K, 44290 kPa): 1148.2 ± 4.6 kg/m3; mass density (283.15 K, 49180 kPa): 1150 ± 4.6 kg/m3; mass density (283.15 K, 54110 kPa): 1151.7 ± 4.6 kg/m3; mass density (283.15 K, 58970 kPa): 1153.4 ± 4.7 kg/m3; mass density (283.15 K, 63860 kPa): 1155.1 ± 4.7 kg/m3; mass density (283.15 K, 68790 kPa): 1156.8 ± 4.7 kg/m3; mass density (293.15 K, 100 kPa): 1122.9 ± 4.5 kg/m3; mass density (293.15 K, 640 kPa): 1123.1 ± 4.5 kg/m3; mass density (293.15 K, 1090 kPa): 1123.4 ± 4.5 kg/m3; mass density (293.15 K, 1600 kPa): 1123.6 ± 4.5 kg/m3; mass density (293.15 K, 2140 kPa): 1123.8 ± 4.5 kg/m3; mass density (293.15 K, 3080 kPa): 1124.2 ± 4.5 kg/m3; mass density (293.15 K, 5030 kPa): 1125.1 ± 4.5 kg/m3; mass density (293.15 K, 7010 kPa): 1125.9 ± 4.5 kg/m3; mass density (293.15 K, 9950 kPa): 1127.2 ± 4.5 kg/m3; mass density (293.15 K, 14850 kPa): 1129.3 ± 4.5 kg/m3; mass density (293.15 K, 19770 kPa): 1131.3 ± 4.5 kg/m3; mass density (293.15 K, 24660 kPa): 1133.3 ± 4.6 kg/m3; mass density (293.15 K, 29510 kPa): 1135.2 ± 4.6 kg/m3; mass density (293.15 K, 34610 kPa): 1137.2 ± 4.6 kg/m3; mass density (293.15 K, 39370 kPa): 1139.1 ± 4.6 kg/m3; mass density (293.15 K, 44320 kPa): 1141 ± 4.6 kg/m3; mass density (293.15 K, 49130 kPa): 1142.8 ± 4.6 kg/m3; mass density (293.15 K, 54050 kPa): 1144.6 ± 4.6 kg/m3; mass density (293.15 K, 59060 kPa): 1146.4 ± 4.6 kg/m3; mass density (293.15 K, 63780 kPa): 1148 ± 4.6 kg/m3; viscosity (293.35 K, 240 kPa): 46.83 ± 1.9 mPa·s [middle of 4 runs]; viscosity (293.35 K, 1160 kPa): 47.82 ± 1.9 mPa·s; viscosity (293.35 K, 1200 kPa): 47.73 ± 1.9 mPa·s; viscosity (293.35 K, 1230 kPa): 47.49 ± 1.9 mPa·s; viscosity (293.35 K, 1240 kPa): 47.46 ± 1.9 mPa·s and 47.21 ± 1.9 mPa·s and 47.42 ± 1.9 mPa·s; viscosity (293.35 K, 2170 kPa): 48.09 ± 2 mPa·s; viscosity (293.35 K, 2200 kPa): 47.9 ± 1.9 mPa·s; viscosity (293.35 K, 2220 kPa): 47.44 ± 1.9 mPa·s; viscosity (293.35 K, 2270 kPa): 47.58 ± 1.9 mPa·s; viscosity (293.35 K, 5010 kPa): 49.43 ± 2 mPa·s; viscosity (293.35 K, 5030 kPa): 49.23 ± 2 mPa·s; viscosity (293.35 K, 5040 kPa): 49.42 ± 2 mPa·s; viscosity (293.35 K, 10520 kPa): 51.72 ± 2.1 mPa·s; viscosity (293.35 K, 10530 kPa): 51.62 ± 2.1 mPa·s; viscosity (293.35 K, 10540 kPa): 51.26 ± 2.1 mPa·s; viscosity (293.35 K, 10620 kPa): 51.34 ± 2.1 mPa·s; viscosity (293.35 K, 10630 kPa): 51.5 ± 2.1 mPa·s; viscosity (293.35 K, 20180 kPa): 56.36 ± 2.3 mPa·s; viscosity (293.35 K, 20210 kPa): 56.39 ± 2.3 mPa·s and 56.29 ± 2.3 mPa·s and 56.71 ± 2.3 mPa·s; viscosity (293.35 K, 29650 kPa): 61.22 ± 2.5 mPa·s; viscosity (293.35 K, 29660 kPa): 61.45 ± 2.5 mPa·s; viscosity (293.35 K, 62400 kPa): 81.01 ± 4.3 mPa·s; viscosity (293.35 K, 62810 kPa): 81.71 ± 4.3 mPa·s; viscosity (293.35 K, 63230 kPa): 82.04 ± 4.3 mPa·s; viscosity (303 K, 190 kPa): 28.88 ± 1.2 mPa·s [middle of 5 runs]; viscosity (303 K, 330 kPa): 28.5 ± 1.3 mPa·s and 29.08 ± 1.3 mPa·s; viscosity (303 K, 340 kPa): 29.02 ± 1.3 mPa·s; viscosity (303 K, 1210 kPa): 29.06 ± 1.2 mPa·s; viscosity (303 K, 1220 kPa): 29.35 ± 1.2 mPa·s and 29.62 ± 1.2 mPa·s; viscosity (303 K, 2000 kPa): 29.4 ± 1.2 mPa·s; viscosity (303 K, 2020 kPa): 29.29 ± 1.2 mPa·s; viscosity (303 K, 2030 kPa): 29.32 ± 1.2 mPa·s; viscosity (303 K, 2100 kPa): 29.31 ± 1.2 mPa·s; viscosity (303 K, 2150 kPa): 29.15 ± 1.2 mPa·s; viscosity (303 K, 5250 kPa): 30.07 ± 1.2 mPa·s; viscosity (303 K, 5270 kPa): 30.07 ± 1.2 mPa·s; viscosity (303 K, 5280 kPa): 30.31 ± 1.2 mPa·s; viscosity (303 K, 10160 kPa): 31.63 ± 1.3 mPa·s; viscosity (303 K, 10170 kPa): 31.41 ± 1.3 mPa·s; viscosity (303 K, 10190 kPa): 31.65 ± 1.3 mPa·s; viscosity (303 K, 10210 kPa): 31.52 ± 1.3 mPa·s; viscosity (303 K, 10220 kPa): 31.49 ± 1.3 mPa·s and 31.52 ± 1.3 mPa·s; viscosity (303 K, 20290 kPa): 34.2 ± 1.4 mPa·s; viscosity (303 K, 20300 kPa): 34.25 ± 1.4 mPa·s; viscosity (303 K, 20320 kPa): 34.32 ± 1.4 mPa·s; viscosity (303 K, 20330 kPa): 34.25 ± 1.4 mPa·s and 34.3 ± 1.4 mPa·s; viscosity (303 K, 30260 kPa): 37.03 ± 1.5 mPa·s and 37.15 ± 1.5 mPa·s and 37.36 ± 1.5 mPa·s; viscosity (303 K, 30270 kPa): 37 ± 1.5 mPa·s; viscosity (303 K, 50510 kPa): 43.39 ± 1.8 mPa·s; viscosity (303 K, 50590 kPa): 43.57 ± 1.8 mPa·s; viscosity (303 K, 50660 kPa): 43.63 ± 1.8 mPa·s; viscosity (303 K, 64010 kPa): 47.91 ± 2.1 mPa·s
